The source of these data is paper PMC8886048, “The Non-phosphorylating Glyceraldehyde-3-Phosphate Dehydrogenase GapN Is a Potential New Drug Target in Streptococcus pyogenes” (Frontiers in Microbiology, 2022).

Data set [1] has as its target T1, S. pyogenes GapN (Streptococcus pyogenes, UniProt Q99Z67).
T1 sequence (Q99Z67 1-475): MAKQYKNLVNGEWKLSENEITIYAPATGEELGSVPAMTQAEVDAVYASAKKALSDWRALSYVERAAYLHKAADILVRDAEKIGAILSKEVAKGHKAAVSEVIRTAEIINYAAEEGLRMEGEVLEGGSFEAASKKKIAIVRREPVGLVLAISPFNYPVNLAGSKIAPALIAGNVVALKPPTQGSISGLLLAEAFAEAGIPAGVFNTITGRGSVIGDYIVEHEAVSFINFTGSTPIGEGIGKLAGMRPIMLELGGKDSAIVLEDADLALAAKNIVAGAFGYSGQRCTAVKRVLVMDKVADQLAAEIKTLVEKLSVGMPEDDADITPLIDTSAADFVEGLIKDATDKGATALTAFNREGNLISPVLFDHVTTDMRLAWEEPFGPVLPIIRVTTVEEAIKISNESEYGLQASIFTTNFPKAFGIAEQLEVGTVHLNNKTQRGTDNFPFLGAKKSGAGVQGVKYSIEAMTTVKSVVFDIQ
As to the kind of experiment: Activity of purified GapN (NADP+ reduction, absorption at 340 nm). Type of data set: biochemical, S. pyogenes M49 strain 591.

In data set [2] the test system is S. mutans GapN. The settings on record: ref Crow and Wittenberger, 1979; cited from earlier work. An excerpt: E4P and phosphohydroxypyruvate were also described to inhibit GapN extracted from pea shoots, maize leaf and the green algae Chlamydomonas reinhardtii ([Kelly and Gibbs, 1973]; [Iglesias et al., 1987]). E4P and S7P are produced in the non-oxidative part of the PPP ([Stincone et al., 2015]), which is present in S. pyogenes. Thus, they could play a role in the in vivo regulation of the enzyme. […] ATP is generated during glycolysis, which provides most of the energy in S. pyogenes.

The test system of data set [3] is S. pyogenes GapN. The settings on record: ref Iddar et al., 2003; cited from earlier work. An excerpt:
The non-phosphorylating glyceraldehyde-3-phosphate dehydrogenase GapN has been predicted to be an essential enzyme in S. pyogenes M49 based on gene essentiality analyses via transposon mutant libraries ([Le Breton et al., 2015]).

In data set [4] the target is non-phosphorylating glyceraldehyde-3-phosphate dehydrogenase GapN of S. pyogenes M49 strain 591 (wild type) (S. pyogenes M49 strain 591). Put plainly: SEC-MALS; HiLoad 16/600 Superdex 200 pg, room temperature, 1 x PBS pH 7.4, 0.5 ml/min; oligomeric state in solution. For orientation: In gel filtration, larger molecules generally elute earlier.
Substrate in data set [5]: O=CC(O)COP(=O)(O)O
As to the kind of experiment: purified protein, by the assay type. Type of data set: biochemical, S. pyogenes M49 strain 591. The settings on record: other: Strep-tagged GapN; ± standard error printed (0.05 NADP; 0.19 DL-G3P).

On to `Nc1ncnc2c1ncn2[C@@H]1O[C@H](COP(=O)(O)OP(=O)(O)OP(=O)(O)O)[C@@H](O)[C@H]1O` [ATP], for which the “Reduction of the activity of purified GapN” value in data set [1] (10 mM ATP added to standard assay (10 mM NADP+, 2 mM DL-G3P, pH 8.5), n = 4) is recorded as 50%. Further, the “Effect on S. mutans GapN activity” value in data set [2] was “inhibited by ATP to some extent”. As to `O=C[C@H](O)[C@H](O)COP(=O)(O)O` [E4P, erythrose 4-phosphate], the “Reduction of the activity of purified GapN” value in data set [1] (2 mM E4P added to standard assay (10 mM NADP+, 2 mM DL-G3P, pH 8.5), n = 4) came to 90%. For the same molecule, the “Specific GapN activity relative to standard assay mix” value in data set [1] (in the presence of 2 mM E4P, mean ± SD, n = 4) turned out to be 10.8 ± 1.9%. For the same molecule, the “Effect on S. mutans GapN activity” value in data set [2] was “inhibitory effects”.

With `O=CC(O)COP(=O)(O)O` (stereo not drawn) [G3P, glyceraldehyde 3-phosphate], the Km in data set [3] was 666 µM. For the molecule `O=C(CO)[C@@H](O)[C@H](O)[C@H](O)[C@H](O)COP(=O)(O)O` [S7P, sedoheptulose 7-phosphate], the “Effect on specific activity of purified GapN” value in data set [1] (added to standard assay: 25 mM salts, 10 mM sugars/pyruvate, 2 mM S7P, 0.4 mM NADH or NADPH, n = 4, one-way ANOVA) was “does not inhibit”. Also, the “Effect on S. mutans GapN activity” value in data set [2] is “inhibitory effects”. Regarding `O=C(O)C(=O)COP(=O)(O)O` [phosphohydroxypyruvate], the “Effect on S. mutans GapN activity” value in data set [2] is “inhibitory effects”.

With NADP, the Km in data set [3] is 385 µM. For the molecule “non-phosphorylating glyceraldehyde-3-phosphate dehydrogenase GapN of S. pyogenes M49 strain 591 (wild type) (enzyme)”, the stoichiometry N in data set [4] is 4.

B1: S. pyogenes GapN (Streptococcus pyogenes serotype M1) (protein)
chain: MAKQYKNLVNGEWKLSENEITIYAPATGEELGSVPAMTQAEVDAVYASAKKALSDWRALSYVERAAYLHKAADILVRDAEKIGAILSKEVAKGHKAAVSEVIRTAEIINYAAEEGLRMEGEVLEGGSFEAASKKKIAIVRREPVGLVLAISPFNYPVNLAGSKIAPALIAGNVVALKPPTQGSISGLLLAEAFAEAGIPAGVFNTITGRGSVIGDYIVEHEAVSFINFTGSTPIGEGIGKLAGMRPIMLELGGKDSAIVLEDADLALAAKNIVAGAFGYSGQRCTAVKRVLVMDKVADQLAAEIKTLVEKLSVGMPEDDADITPLIDTSAADFVEGLIKDATDKGATALTAFNREGNLISPVLFDHVTTDMRLAWEEPFGPVLPIIRVTTVEEAIKISNESEYGLQASIFTTNFPKAFGIAEQLEVGTVHLNNKTQRGTDNFPFLGAKKSGAGVQGVKYSIEAMTTVKSVVFDIQ
Turning to B1, in data set [5], the Km was 580 µM.

Broadly, the Km is the substrate concentration at which the rate is half of its maximum. For orientation: stoichiometry N means the number of molecules, sites or subunits per partner or assembly.
